Columns and labels:
Assay type in all cases: in vivo
[1] = test system: Brown Dog Ticks, Rhipicephalus sanguineus
Description: The following protocol was employed to test compounds of this invention for toxicity (mortality) against ticks. There were 5 replicates of 5 dog ticks for each treatment. […] Filter paper strips were laid on a sheet of aluminum foil and enough of each of the test sample was applied to thoroughly saturate the paper. The paper was then rolled and placed inside a glass shell vial as to line the sides of the vial. A small paper disc, also saturated with the test sample, was then placed at the bottom of the vial. Brown Dog Ticks, Rhipicephalus sanguineus, were then introduced into the vials which were covered with aluminum foil, the inside of which was painted with some of the test sample. The ticks remained in the vials, constantly exposed to the test samples, for the duration of the test. A small hole was poked through the foil for ventilation. Each control replicate was subjected to the same procedures outlined above, except that they were not treated. The controls were placed in the same area as the test replicates for the duration of the test. Mortality observations were made at 24 hours. Ticks were classified as alive (able to move normally), moribund (those classified as moribund will show some movement, but will not be able to crawl in a coordinated manner, or will be unable to right themselves if placed on their backs), or dead (no movement after physical stimuli). All dead ticks were confirmed by probing or agitation to make sure that they are unable to move; any that show movement visible to the naked eye were recorded as moribund. At 24 hours the tick mortality was 0% for the control, 100% for γ-dodecalactone, 100% for methyl apritone and 76% for methyl dihydrojasmonate.

[2] = test system: Brown Dog Ticks; experiment: Second repellent assay against Brown Dog Ticks; conditions: 7% in isopropyl alcohol
Description: Also, a second repellent assay was used to evaluate six test samples against Brown Dog Ticks. Five replicates of five ticks were given the opportunity to quest onto a vertical strip of untreated filter paper and then allowed to move upward toward a second vertical strip of filter paper treated with one of the six candidate repellents or DEET®. In the control situation, the second strip was treated with isopropanol. They were then observed for directional or behavioral changes caused in response to contact with the repellent. Ticks were recorded as either repelled or not repelled. Compounds were diluted in isopropyl alcohol. The percentages of ticks repelled are shown below in Table 6.

[3] = test system: stable flies; experiment: Stable fly probing on treated warmed blood-filled membranes; conditions: for Probes at 7% test compound: 7% in isopropyl alcohol on membrane; for Probes at 7% test compound / Probes at 15% test compound: twenty minutes, percent of control probes taken as 100%; for Probes at 15% test compound: 15% in isopropyl alcohol on membrane
Description: Five replicates of 100 mixed-sex stable flies each were placed in screened cages. The cages were placed in such a way that the stable flies had access to five warmed, blood-filled membrane walls. The membranes were treated with methyl dihydrojasmonate, gamma-dodecalactone, methyl apritone, or DEET® all at 7% and at 15% in isopropyl alcohol, or isopropyl alcohol as a control. There were five replicates tested with a positional rotation of the repellent at each replicate. Fresh batches of stable flies were used for each replicate. Thus each test sample was tested on each of the five wells, which allowed any positional bias to be eliminated. The number of stable flies probing each well was recorded at two minute intervals for twenty minutes. The total number of probes on each well were tallied at the end of the twenty minute observation period and the average percentage repellency was calculated for each compound. An analysis of variance was conducted to compare the average number of probes on each treatment membrane. The number of probes for the control was taken as the 100% baseline and the percentage for the test compounds is the percent for the number of probes for the test compound compared to the number of control probes.

[4] = test system: sand flies P. papatasi; experiment: Sand fly bite test on treated human skin with K&D module; conditions: for percent biting, Treatment level 5%: 5% compound in isopropyl alcohol on human skin; for percent biting, Treatment level 5% / percent biting, Treatment level-10%: five minute exposure, percent of control biting taken as 100%; for percent biting, Treatment level-10%: 10% compound in isopropyl alcohol on human skin; for sand flies repelled: at 5%
Description: Control against sand flies was determined by the following protocol as generally described in J. Med. Entomol. 43 (6), 1248-1252 (2006). Volunteers wearing short pants were seated. Using a skin-marking template and a washable-ink marker, skin areas represented by 3- by 4-cm floor opening of six cells of a K&D module were outlined on the outer, top and inner thigh position of each leg of the volunteers. The six treated cell rectangles each represented a random block, and each volunteer had three blocks on each of two thighs. All treatments against the sand flies P. papatasi, were pipetted onto a 4- by 5-cm rectangular area (so the area of skin covered by a treatment exceeded the template marks by 0.5 cm in every direction) of the subjects' skin with 55 ul of isopropyl alcohol/treatment containing 10% or 5% compound/ul isopropyl alcohol. Treating a slightly larger area ensured that the areas beneath each K&D module contained only treated skin. Skin treated with isopropyl alcohol alone served as control. In all tests adjacent cells of the K&D module were supplied with ten sand flies. The sand fly charged K&D module was positioned over the treated skin areas and the trap doors of the K&D module above the areas were opened. After a five minute skin exposure the trap doors were closed. The number of sand fly bites was recorded for each cell. The percent biting is the percent compared to the biting for the control which was taken as 100%.

[5] = test system: German cockroaches; experiment: German cockroach repellency, choice of food stations in arena; conditions: 50% in acetone; at 4 hours
Description: The efficacy of compounds of this invention to control or repel German cockroaches was illustrated using the following protocol. One food pellet each was placed on a paper square (station) treated with one of the repellent materials. Materials were diluted to 50% in acetone and a straight acetone station was also used. Both stations were placed on the same side of the arena. Cockroaches were starved for 2 days and then released into the arena. They were given a choice to feed on either food pellet. A control arena with an acetone treated station and an untreated station was also used. The distribution of cockroaches within the arena was recorded at 30 minute intervals over 4 hours. Repellency at 4 hours was calculated by the number of cockroaches on the untreated station vs. the total number of cockroaches on the stations.

[6] = test system: house flies; experiment: House fly repellency on treated filter paper food trays in cages; conditions: over 6 hours
Description: The bottom of each cage was lined with brown craft paper and divided into 4 equal quadrants. Each quadrant housed a makeshift filter paper food tray. Two of the four filter papers were treated with repellent and two treated with isopropanol. Control cages contained filter papers that were treated with 4 filter papers of isopropanol only. The number of flies resting on filter paper per quadrant was recorded every 30 minutes for a total of 6 hours. Cages were rotated to eliminate positional bias. […] Each of the test samples were diluted in isopropyl alcohol.

[7] = test system: Black Widow spiders; experiment: Black Widow spider choice test in half-treated tube shelters; conditions: 5% in isopropanol; location after 24 hours
Description: Control against Black Widow spiders was determined using the following protocol. One test container containing two card stock tube shelters, one half treated with a test sample and the other half treated with isopropanol was prepared. A spider was introduced in the center of the tube. The spider was then given a choice to move to one end of the shelters. The following day, its location is recorded and compared to the results from a shelter containing untreated half-shelters.
On the day of the test one of the two shelters was sprayed with the test sample solution using a 2 oz pump spray bottle. Only the surfaces that the spider will most likely contact were treated. Therefore, only the inside of one of the shelter tubes, including the end disc (spiders will not be able to access the outside part of the shelter) were sprayed. The total amount of product was weighed and recorded. The treated surface was allowed to dry for a minimum of ½ hour, or until solvent could not be detected by smell. At this time the shelter tubes were assembled.
Card stock paper tube shelters were constructed from 2 half-letter sized sheets (5½″×8½″) of paper, rolled and taped together to form a short tube. One end of each was covered with a circle of card stock paper, while the other end was later taped to the open end of the other half sheet, forming one long tube. […] The solvent-treated half was labeled with a “C” on the inner and outer walls with a pencil or a pen with solvent resistant ink. Prior to forming the final tube shelter, a semi-circular hole was cut into one of the margins of each sheet such that, once the two tubes are taped together, the holes correspond to the top and at the junction of the tubes for introduction of the spiders.
Twenty-five arenas were prepared in this manner for each test sample. There were five replicates of five spiders. Twenty-five additional control arenas were also prepared. They were prepared the same way, except that areas to be sprayed were sprayed with isopropanol only.
Replicates of five spiders were selected for each test formulation and for the control. The specimens were visually examined for overall physical condition. […] The spiders were transferred directly into the holding vials using flexible forceps or with a little coaxing with an artist brush. Because of their cannibalistic tendencies, each vial contained only one spider. There they were held until the time for testing.
At the test start the spiders were placed directly in the middle, through the opening at the top of the shelter tube, and the opening covered, with only one spider per arena. […] They were left alone for 24 hours, after which time their location within the arena was recorded. Spiders present inside the shelter treated with the test repellent were considered tolerant.

[8] = test system: Brown Dog Ticks, Rhipicephalus sanguineus; experiment: Brown Dog tick repellency on vertical filter paper strips
Description: Control against Brown Dog ticks was determined in the following protocol. Strips of filter paper, 1″ by 3″, were placed on a sheet of aluminum foil treated with 1 ml each of the test samples and allowed to dry. The end of each treated strip was stapled to an untreated filter paper strip of the same dimensions. The stapled strips were suspended in a vertical position above a tray, with the treated half attached to a horizontal glass rod by a metal clip. The untreated half was lowered when the strip is vertically positioned. Brown Dog Ticks, Rhipicephalus sanguineus, mixed sexes, were purchased from a supplier. Five replicates of five ticks for each treatment regimen plus five additional replicates for the control were employed. Ticks shipped to the test site were given at least one day to acclimate to “shipping stress” before they are used for testing. Those tick specimens which appeared sluggish or moribund were not used. Suitable ticks were removed from their containers and allowed to quest on the free end of the test strip. Once present on the strip they were watched as they crawled up the strip until they contacted the treated paper. If the tick, once in contact with the treated zone, either turned around, stopped without proceeding further, or dropped off, the tick is classified as repelled. If it continued to crawl onto the treated strip, even after it stopped briefly, that tick was classified as not repelled. A maximum observation time of 1 minute per replicate was allowed for ticks to respond after reaching the treated area, but during the test, if more time was needed, the maximum observation time may have been adjusted at the discretion of the study coordinator. At the end of the observation time, the number of ticks repelled was recorded. Tick behavior was recorded when applicable, such as whether increased number of affected or repelled ticks occurred in successive replicates over time. After the completion of each treatment parameter, the testing chamber was ventilated for five minutes by turning on the exhaust fan and opening the door leading into the chamber. Ticks were used only once. Average number of ticks displaying each behavior category were calculated and compared to the control replicates.

[9] = test system: brown marmorated stink bugs (BMSB); experiment: Brown marmorated stink bug repellency, treated vs. untreated filter paper arena
Description: The two semi-circle filter papers were aligned together to completely cover the bottom of the test arena. Control arenas were also set up in a similar fashion except both were treated with acetone. Five replicates of 5 BMSB were then introduced into both the treated and control arenas. By releasing them in the center of the arena, the BMSB were presented with a choice of treated vs. untreated substrate (or untreated vs. untreated in the control arenas). The repellency of the BMSB was recorded at 24 hours post-treatment.

[10] = test system: Pharaoh ants; experiment: Pharaoh ant behaviour at treated-untreated interface on poster board; conditions: 50% in acetone; 5 minutes after release
Description: Pharaoh ants were tested using the following protocol. The side of a 17″×23″ rectangular sheet of poster board was sprayed with the test sample or acetone, except for a region within a 6″ circle. The treated poster board was allowed to dry. Five worker ants were placed in the center of the 6″ untreated circle and allowed to wander outside the circle onto the treated surface. The behavior of the ants at the treated-untreated interface was recorded for 5 minutes after release. Test compounds were diluted in acetone.

## CCCCCC1CC(C)=CC(O)C1 (stereo not shown) [3-Methyl-5-Pentyl-2-cyclohexenol, 3-methyl-5-pentyl-2-cyclohexenol]
[1]; 10%, constant exposure 24 hours
  morbidity at 24 hr: 100%
[1]; in vivo
  24 hr mortality (%): 12%

## CCN(CC)C(=O)c1cccc(C)c1 [DEET ®, N,N-Diethyl-m-toluamide, reference compound]
[2]
  Mean % repelled: 96%
[3]
  Probes at 7% test compound: 45.9%
  Probes at 15% test compound: 16.2%

## CCCCCC1C(O)CCC1CC(=O)OC (stereo not shown) [Methyl dihydrojasmolate]
[4]
  percent biting, Treatment level 5%: 0%
  percent biting, Treatment level-10%: 0%
  sand flies repelled: 100%

## CCCCCC1C(=O)CCC1CC(=O)OCC=C(C)C (stereo not shown) [Prenyl dihydrojasmonate]
[5]
  % Repellency 4 hr: 87.5%

## CCCCCCCCCC1CCCC(=O)O1 (stereo not shown) [delta Tetradecalactone]
[6]; 5% in isopropyl alcohol
  Overall % Repellency: 76%

## CCCCCCCCCCCC1CCC(=O)O1 (stereo not shown) [gamma Pentadecalactone]
[6]; 7.5% in isopropyl alcohol
  Overall % Repellency: 87%
[7]
  % Repellency: 75.0%

## CCCCCCCCCC1CCC(=O)O1 (stereo not shown) [gamma Tridecalactone, gamma-tridecalactone]
[8]; 7.5% in isopropyl alcohol
  Mean % repelled: 100%
[6]; 5% in isopropyl alcohol
  Overall % Repellency: 80%
[6]; 7.5% in isopropyl alcohol
  Overall % Repellency: 94%
[9]; 5% in isopropyl alcohol
  % Repellency at 24 hours: 70%
[7]
  % Repellency: 75.0%

## CCCCCCCCC1CCC(=O)O1 (stereo not shown) [gamma-Dodecalactone, gamma-dodecalactone]
[8]; Neat
  Mean % repelled: 100%
[8]; concentration not given
  ticks repelled: 100%
[6]; 7.5% in isopropyl alcohol
  Overall % Repellency: 100%
[5]
  % Repellency 4 hr: 96.6%
[9]; 10% in isopropyl alcohol
  % Repellency at 24 hours: 100%
[1]; in vivo
  24 hr mortality (%): 100%
  tick mortality at 24 hours: 100%
[10]
  % crossed without stopping: 82%
  % slowed, but crossed: 8%
  % stopped at interface: 10%
[3]
  Probes at 7% test compound: 6.2%
  Probes at 15% test compound: 3.6%
[3]; at the same concentrations (7% and 15%)
  repellency compared with DEET: repelled better than DEET®

## Farnesyl cyclopentanone
[5]
  % Repellency 4 hr: 100%

## Methyl apritol
[4]
  percent biting, Treatment level 5%: 12.5%
  percent biting, Treatment level-10%: 0%
  sand flies repelled: 87.5%

Source: US10785978B2, “Control and repellency of biting flies, house flies, ticks, ants, fleas, biting midges, cockroaches, spiders and stink bugs” (priority 2012, dated 2020)
